From paper PMC8159961, “Exploring protein hotspots by optimized fragment pharmacophores” (Nature Communications, 2021)
pKi: −log10 of the molar value. Where “and” joins values, the source holds several entries; their conditions need not be identical. Equal entries are not always repeated. Where two headings read alike, the source gives them in different places.

Legend:
[1] = biological target: T1, bovine factor Xa (Bos taurus, UniProt P00743); test: Protease inhibitory assay, chromogenic substrate S-2222; format: biochemical; conditions: cmpd conc 200 µM; for vinit: replicate values; for pKi: FactorXa, one of two values averaged in Supplementary Data 1, read-out: Ki
T1 construct: bovine factor Xa, Chromogenix, 2 nkat/mL; purchased Chromogenix
T1 sequence (P00743 234-492 limits assumed): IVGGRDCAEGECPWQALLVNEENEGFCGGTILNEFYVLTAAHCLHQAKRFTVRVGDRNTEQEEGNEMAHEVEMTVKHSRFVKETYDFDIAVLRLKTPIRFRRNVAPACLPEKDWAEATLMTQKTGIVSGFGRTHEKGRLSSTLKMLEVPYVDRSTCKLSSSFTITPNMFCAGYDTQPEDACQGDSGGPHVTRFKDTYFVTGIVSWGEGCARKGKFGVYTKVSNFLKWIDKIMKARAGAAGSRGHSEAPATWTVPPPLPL
T1 sequence (P00743 41-180 partner limits assumed): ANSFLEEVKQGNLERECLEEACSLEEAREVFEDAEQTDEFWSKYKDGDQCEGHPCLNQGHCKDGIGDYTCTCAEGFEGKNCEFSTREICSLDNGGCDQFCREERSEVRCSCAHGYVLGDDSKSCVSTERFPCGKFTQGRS

[2] = biological target: T2, human thrombin (Homo sapiens, UniProt P00734); test: Protease inhibitory assay, chromogenic substrate S-2238; format: biochemical; conditions: Thrombin primary screening, substrate 40 µM, cmpd conc 500 µM; for vinit: replicate values
T2 construct: human thrombin; purchased Sigma-Aldrich

[3] = FactorXa primary screening, substrate 100 µM
[4] = FactorXa Ki determination, substrate 100 µM
[5] = FactorXa Ki determination, substrate 200 µM

Row | SMILES | V0 / Vi [1, 3] | vinit [1, 3] | V0 / Vi [2] | vinit [2] | V0 / Vi [1, 4] | vinit, avrg. [1, 4] | vinit [1, 4] | V0 / Vi [1, 5] | vinit [1, 5] | pKi ([1]; substrate 100 µM) | pKi ([1]; substrate 200 µM)
1 | O=c1[nH]c2c(s1)CCC2 [SX-C10] | 1.04 | 13.7 and 14.2 | 0.94 | 33.418 and 33.127 | – | – | – | – | – | – | –
2 | CS(=O)(=O)c1ccc(N2CCNCC2)cc1 [SX-B1] | – | 18 and 19.091 | – | 29.818 and 32 | – | – | – | – | – | – | –
3 | c1cnc2c(c1)NCCC2 [SX-E7] | 0.98 | 18.836 and 17.745 | 0.93 | 33.927 and 32.545 | – | – | – | – | – | – | –
4 | Oc1cnc(-c2ccccc2)nc1 [SX-F11] | 1.00 | 14.672 and 14.2 | 1.02 | 30.836 and 30.8 | – | – | – | – | – | – | –
5 | Oc1ccc(-n2cncn2)cc1 [SX-H5] | 1.05 | 16 and 16.3 | 1.00 | 33.091 and 32.545 | – | – | – | – | – | – | –
6 | COc1ccc(CN2CCNCC2)cc1F [SX-D11] | 0.84 | 17.75 and 16.65 | 0.91 | 34.582 and 34.364 | – | – | – | – | – | – | –
7 | NC1CCc2ccccc21 (centres unmarked) [SX-B4] | 0.93 | 18.714 and 18.143 | 0.96 | 31.2 and 30.982 | – | – | – | – | – | – | –
8 | O=C(c1ccccc1F)N1CCNCC1 [SX-E12] | 1.28 | 11.3 | 0.98 | 32.036 and 31.782 | 1.26 | 12.944 | 12.386 and 12.902 and 13.544 | 1.17 | 30.668 and 30.24 and 32.808 | 3.32 | 3.27
9 | CC(=O)c1ccc2c(c1)CNCC2 [SX-C8] | 0.98 | 18.691 and 17.818 | 0.98 | 32.218 and 31.018 | – | – | – | – | – | – | –
